Common to all, as to experiment: Kinase panel
Holding throughout (type): biochemical

In one experiment the target is T1, ACK1(h) (Homo sapiens, UniProt Q07912).
T1 construct: purchased Millipore KinaseProfiler

Another experiment addresses T2, ULK2(h) (Homo sapiens, UniProt Q8IYT8).
T2 construct: purchased Millipore KinaseProfiler
T2 sequence (Q8IYT8 1-1036): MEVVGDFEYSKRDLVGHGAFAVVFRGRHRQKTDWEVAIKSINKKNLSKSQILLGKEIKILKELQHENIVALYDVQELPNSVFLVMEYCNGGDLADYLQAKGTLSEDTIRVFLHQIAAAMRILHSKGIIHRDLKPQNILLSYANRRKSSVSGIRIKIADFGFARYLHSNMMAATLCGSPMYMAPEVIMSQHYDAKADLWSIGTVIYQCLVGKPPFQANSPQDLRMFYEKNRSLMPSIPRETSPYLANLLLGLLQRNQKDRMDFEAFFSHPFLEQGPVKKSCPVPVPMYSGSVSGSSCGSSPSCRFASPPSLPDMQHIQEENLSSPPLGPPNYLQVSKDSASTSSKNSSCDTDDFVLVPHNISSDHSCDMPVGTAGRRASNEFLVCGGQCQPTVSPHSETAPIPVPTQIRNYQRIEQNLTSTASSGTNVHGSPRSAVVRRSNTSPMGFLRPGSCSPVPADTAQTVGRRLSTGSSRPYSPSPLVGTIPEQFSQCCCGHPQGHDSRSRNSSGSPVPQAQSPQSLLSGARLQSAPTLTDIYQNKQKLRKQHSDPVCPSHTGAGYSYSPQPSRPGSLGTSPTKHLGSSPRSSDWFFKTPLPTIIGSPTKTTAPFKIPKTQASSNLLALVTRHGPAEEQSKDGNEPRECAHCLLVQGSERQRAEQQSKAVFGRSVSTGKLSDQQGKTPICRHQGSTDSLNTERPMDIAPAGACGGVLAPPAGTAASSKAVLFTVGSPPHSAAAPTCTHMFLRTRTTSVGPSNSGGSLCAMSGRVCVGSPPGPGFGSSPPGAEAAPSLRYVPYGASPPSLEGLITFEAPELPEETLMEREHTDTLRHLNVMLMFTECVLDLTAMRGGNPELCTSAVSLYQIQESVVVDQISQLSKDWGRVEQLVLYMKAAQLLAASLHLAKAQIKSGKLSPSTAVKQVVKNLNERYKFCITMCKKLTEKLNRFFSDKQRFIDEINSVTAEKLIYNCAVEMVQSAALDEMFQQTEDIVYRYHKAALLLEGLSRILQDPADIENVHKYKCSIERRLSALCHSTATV

For the next experiment, the target named is T3, SRPK2(h) (Homo sapiens, UniProt P78362).
T3 construct: purchased Millipore KinaseProfiler

A further experiment addresses T4, Yes(h) (Homo sapiens, UniProt P07947).
T4 construct: purchased Millipore KinaseProfiler

Another experiment concerns the target T5, NLK(h) (Homo sapiens, UniProt Q9UBE8).
T5 construct: purchased Millipore KinaseProfiler
T5 sequence (Q9UBE8 1-527): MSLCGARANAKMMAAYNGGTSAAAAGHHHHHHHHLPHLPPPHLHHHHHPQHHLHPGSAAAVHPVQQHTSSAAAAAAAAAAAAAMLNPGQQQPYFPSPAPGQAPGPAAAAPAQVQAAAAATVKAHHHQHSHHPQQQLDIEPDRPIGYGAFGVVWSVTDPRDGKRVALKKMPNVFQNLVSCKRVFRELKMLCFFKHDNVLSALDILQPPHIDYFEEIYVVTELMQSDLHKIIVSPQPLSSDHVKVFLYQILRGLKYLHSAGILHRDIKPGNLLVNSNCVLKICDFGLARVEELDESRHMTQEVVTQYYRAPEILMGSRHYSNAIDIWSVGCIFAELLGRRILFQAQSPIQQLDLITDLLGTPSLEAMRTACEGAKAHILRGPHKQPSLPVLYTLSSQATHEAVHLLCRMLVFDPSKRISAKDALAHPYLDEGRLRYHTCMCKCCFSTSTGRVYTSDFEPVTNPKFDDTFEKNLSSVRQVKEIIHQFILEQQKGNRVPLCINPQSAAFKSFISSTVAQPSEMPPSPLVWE

For another experiment, the target named is T6, GSK3β(h) (Homo sapiens, UniProt P49841).
T6 construct: purchased Millipore KinaseProfiler

A further experiment has as its target T7, PRK2(h) (Homo sapiens, UniProt Q16513).
T7 construct: purchased Millipore KinaseProfiler

For a further experiment, the target named is T8, VRK2(h) (Homo sapiens, UniProt Q86Y07).
T8 construct: purchased Millipore KinaseProfiler

A further experiment deals with T9, EphA2(h) (Homo sapiens, UniProt P29317).
T9 construct: purchased Millipore KinaseProfiler

Another experiment concerns the target T10, NEK3(h) (Homo sapiens, UniProt P51956).
T10 construct: purchased Millipore KinaseProfiler
T10 sequence (P51956 1-506): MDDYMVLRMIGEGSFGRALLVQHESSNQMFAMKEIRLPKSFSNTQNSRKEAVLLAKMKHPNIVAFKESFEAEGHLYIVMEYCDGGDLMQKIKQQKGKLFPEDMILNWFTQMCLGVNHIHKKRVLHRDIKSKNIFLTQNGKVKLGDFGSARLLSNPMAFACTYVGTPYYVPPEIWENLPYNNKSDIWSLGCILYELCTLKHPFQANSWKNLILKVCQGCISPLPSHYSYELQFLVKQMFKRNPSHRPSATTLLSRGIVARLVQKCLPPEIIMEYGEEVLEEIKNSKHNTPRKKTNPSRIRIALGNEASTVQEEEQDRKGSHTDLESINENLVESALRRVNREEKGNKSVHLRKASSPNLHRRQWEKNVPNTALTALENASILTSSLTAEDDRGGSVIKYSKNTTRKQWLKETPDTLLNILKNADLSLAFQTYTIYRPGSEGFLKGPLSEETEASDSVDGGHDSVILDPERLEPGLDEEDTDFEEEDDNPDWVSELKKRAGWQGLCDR

The record followed here is paper PMC4076210, “Discovery of Novel AKT Inhibitors with Enhanced Anti-Tumor Effects in Combination with the MEK Inhibitor” (PLoS ONE, 2014).

Each structure is given as a SMILES string. Like-named read-outs stand apart in the source and are kept apart here.

T6 sequence (P49841 whole entry): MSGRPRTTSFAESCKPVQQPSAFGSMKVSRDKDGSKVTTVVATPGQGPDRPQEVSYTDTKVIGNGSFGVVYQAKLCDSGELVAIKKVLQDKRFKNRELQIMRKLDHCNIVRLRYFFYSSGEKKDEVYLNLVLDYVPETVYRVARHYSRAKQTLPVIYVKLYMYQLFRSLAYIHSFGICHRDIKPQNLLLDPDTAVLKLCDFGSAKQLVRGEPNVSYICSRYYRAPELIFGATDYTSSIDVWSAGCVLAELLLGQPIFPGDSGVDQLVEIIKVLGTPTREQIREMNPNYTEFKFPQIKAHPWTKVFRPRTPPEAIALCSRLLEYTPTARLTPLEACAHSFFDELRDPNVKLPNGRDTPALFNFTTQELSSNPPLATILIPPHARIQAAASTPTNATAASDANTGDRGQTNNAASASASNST
T3 sequence (P78362 whole entry): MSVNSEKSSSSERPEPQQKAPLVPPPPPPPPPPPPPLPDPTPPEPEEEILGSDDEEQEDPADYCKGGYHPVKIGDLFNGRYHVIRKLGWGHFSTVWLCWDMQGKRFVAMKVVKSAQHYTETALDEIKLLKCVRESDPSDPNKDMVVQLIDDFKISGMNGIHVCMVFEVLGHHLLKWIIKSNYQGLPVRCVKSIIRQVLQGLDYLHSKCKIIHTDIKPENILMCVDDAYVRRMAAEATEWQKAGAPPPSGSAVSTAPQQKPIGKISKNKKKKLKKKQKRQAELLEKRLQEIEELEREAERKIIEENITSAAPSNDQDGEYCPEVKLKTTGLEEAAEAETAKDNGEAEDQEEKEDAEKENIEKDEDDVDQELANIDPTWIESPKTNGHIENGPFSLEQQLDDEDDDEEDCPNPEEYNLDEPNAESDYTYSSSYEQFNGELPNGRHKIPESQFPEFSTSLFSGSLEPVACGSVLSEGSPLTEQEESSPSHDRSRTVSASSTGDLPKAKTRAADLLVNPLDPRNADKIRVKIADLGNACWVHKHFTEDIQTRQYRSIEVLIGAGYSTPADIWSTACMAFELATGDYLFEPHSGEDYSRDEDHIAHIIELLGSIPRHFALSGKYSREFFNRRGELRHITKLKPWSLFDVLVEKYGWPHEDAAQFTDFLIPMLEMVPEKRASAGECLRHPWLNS
T4 sequence (P07947 whole entry): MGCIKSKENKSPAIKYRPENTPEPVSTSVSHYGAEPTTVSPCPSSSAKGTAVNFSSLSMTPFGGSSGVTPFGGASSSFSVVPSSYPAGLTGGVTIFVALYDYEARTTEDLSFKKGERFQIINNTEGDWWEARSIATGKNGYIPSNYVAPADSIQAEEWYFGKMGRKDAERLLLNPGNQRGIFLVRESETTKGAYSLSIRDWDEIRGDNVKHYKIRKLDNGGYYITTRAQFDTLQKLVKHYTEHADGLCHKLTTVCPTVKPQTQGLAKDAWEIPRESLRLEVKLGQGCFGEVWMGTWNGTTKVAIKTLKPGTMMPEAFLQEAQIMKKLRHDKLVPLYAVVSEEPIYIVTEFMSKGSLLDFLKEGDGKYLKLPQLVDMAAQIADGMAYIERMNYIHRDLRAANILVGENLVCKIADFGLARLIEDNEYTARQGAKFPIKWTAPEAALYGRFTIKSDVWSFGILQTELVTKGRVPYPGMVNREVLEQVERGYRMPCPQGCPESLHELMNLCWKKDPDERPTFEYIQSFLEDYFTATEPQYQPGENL
T8 sequence (Q86Y07 whole entry): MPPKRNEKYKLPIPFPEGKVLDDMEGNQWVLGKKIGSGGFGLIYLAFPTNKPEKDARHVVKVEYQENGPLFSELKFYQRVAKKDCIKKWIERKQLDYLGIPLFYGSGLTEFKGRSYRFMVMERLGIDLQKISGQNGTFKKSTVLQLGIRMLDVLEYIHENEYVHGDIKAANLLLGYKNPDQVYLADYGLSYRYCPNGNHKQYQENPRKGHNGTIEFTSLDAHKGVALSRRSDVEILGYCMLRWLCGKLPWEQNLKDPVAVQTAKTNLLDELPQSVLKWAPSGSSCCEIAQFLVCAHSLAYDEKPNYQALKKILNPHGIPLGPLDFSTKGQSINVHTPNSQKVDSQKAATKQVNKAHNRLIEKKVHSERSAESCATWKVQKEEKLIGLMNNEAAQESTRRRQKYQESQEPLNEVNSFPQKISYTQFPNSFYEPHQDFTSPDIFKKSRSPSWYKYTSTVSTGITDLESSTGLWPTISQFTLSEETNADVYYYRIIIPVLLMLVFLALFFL
T9 sequence (P29317 24-976): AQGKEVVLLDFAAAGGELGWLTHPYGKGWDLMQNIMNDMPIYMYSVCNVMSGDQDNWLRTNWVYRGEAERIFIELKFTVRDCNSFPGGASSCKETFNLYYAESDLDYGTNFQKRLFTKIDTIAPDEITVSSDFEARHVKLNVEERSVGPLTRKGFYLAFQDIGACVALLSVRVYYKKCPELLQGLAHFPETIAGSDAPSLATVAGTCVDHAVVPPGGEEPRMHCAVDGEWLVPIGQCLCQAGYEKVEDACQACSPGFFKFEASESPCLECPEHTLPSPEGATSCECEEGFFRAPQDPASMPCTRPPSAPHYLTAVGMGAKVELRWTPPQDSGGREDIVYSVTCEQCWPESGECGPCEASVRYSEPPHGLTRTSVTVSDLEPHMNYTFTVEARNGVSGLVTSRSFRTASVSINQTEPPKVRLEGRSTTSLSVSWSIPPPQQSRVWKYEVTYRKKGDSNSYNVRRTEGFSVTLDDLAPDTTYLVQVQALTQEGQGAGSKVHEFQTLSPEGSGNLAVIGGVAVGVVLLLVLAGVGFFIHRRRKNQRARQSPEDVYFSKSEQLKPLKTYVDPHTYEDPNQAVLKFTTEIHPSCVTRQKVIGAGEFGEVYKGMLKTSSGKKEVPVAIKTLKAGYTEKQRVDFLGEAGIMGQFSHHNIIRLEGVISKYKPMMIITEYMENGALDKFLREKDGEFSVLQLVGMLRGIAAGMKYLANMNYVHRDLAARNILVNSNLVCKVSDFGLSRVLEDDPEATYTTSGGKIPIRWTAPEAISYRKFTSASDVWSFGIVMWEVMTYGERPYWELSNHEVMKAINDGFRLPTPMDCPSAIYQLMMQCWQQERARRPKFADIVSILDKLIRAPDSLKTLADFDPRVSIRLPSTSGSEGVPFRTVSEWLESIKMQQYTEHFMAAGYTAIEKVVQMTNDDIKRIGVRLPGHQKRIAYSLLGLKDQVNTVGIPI
T7 sequence (Q16513 whole entry): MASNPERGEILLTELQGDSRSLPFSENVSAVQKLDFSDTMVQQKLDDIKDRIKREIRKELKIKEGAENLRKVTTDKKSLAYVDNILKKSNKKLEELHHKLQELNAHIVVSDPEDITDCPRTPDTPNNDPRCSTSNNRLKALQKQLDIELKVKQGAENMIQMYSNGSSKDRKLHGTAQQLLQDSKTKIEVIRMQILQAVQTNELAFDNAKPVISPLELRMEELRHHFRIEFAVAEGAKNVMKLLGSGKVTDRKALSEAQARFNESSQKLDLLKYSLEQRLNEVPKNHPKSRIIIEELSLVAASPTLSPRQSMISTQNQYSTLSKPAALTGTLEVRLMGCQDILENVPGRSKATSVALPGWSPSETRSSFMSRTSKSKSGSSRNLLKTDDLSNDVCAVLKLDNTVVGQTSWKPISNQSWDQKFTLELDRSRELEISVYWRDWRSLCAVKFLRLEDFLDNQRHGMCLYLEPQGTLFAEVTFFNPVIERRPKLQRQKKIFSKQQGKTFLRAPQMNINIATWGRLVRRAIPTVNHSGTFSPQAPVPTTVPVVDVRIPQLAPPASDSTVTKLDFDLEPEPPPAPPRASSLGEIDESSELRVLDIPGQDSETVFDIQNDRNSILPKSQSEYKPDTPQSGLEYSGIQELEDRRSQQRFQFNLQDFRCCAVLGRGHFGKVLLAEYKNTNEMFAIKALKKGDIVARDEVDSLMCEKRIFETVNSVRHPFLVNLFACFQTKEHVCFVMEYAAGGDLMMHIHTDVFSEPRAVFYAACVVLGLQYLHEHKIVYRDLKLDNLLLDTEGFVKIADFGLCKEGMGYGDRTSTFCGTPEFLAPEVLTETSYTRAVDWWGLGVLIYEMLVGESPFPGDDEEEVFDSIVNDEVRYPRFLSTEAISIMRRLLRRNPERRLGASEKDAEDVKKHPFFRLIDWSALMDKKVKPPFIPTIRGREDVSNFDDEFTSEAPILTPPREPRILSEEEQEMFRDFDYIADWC

Turning to `Cn1ncc(Cl)c1-c1cc(C(=O)N[C@H](CN)Cc2ccc(F)c(F)c2)oc1Cl` [GSK2141795], the inhibition (commonly the change of the read-out against control, counted positive when it falls) at 0.5 µM on ACK1(h) (0.5 µM, read-out: % Inhibition) is -2%; at ULK2(h) (0.5 µM, read-out: % Inhibition) it was 6%; on SRPK2(h) (0.5 µM, read-out: % Inhibition) it was 1%; at Yes(h) (0.5 µM, read-out: % Inhibition) it was -4%; on NLK(h) (0.5 µM, read-out: % Inhibition) it was 4%; on GSK3β(h) (0.5 µM, read-out: % Inhibition), -8%. Besides, the inhibition at 0.5 µM on PRK2(h) (0.5 µM, read-out: % Inhibition) is 81%; on VRK2(h) (0.5 µM, read-out: % Inhibition), -15%; at EphA2(h) (0.5 µM, read-out: % Inhibition), 25%; at NEK3(h) (0.5 µM, read-out: % Inhibition) it was 6%. The inhibition at 10 µM was 0% at ACK1(h) (10 µM, read-out: % Inhibition); 26% at ULK2(h) (10 µM, read-out: % Inhibition); 27% on SRPK2(h) (10 µM, read-out: % Inhibition); 83% on Yes(h) (10 µM, read-out: % Inhibition); 46% on NLK(h) (10 µM, read-out: % Inhibition); -13% on GSK3β(h) (10 µM, read-out: % Inhibition). In addition, the inhibition at 10 µM at PRK2(h) (10 µM, read-out: % Inhibition) is 96%; on VRK2(h) (10 µM, read-out: % Inhibition) it was -5%; at EphA2(h) (10 µM, read-out: % Inhibition), 39%; at NEK3(h) (10 µM, read-out: % Inhibition) it was 12%.
For the compound `Cn1ncc(Cl)c1-c1cc(C(=O)N[C@H](CN)Cc2cccc(F)c2)sc1Cl` [GSK2110183], the inhibition at 0.5 µM against ACK1(h) is 1%; at ULK2(h), 0%; at SRPK2(h), 26%; against Yes(h) it was 2%; on NLK(h) it was -8%; against GSK3β(h), 4%. The inhibition at 0.5 µM is 71% against PRK2(h), -8% at VRK2(h), -17% at EphA2(h) and -14% against NEK3(h). Moreover, the inhibition at 10 µM against ACK1(h) was 8%; at ULK2(h) it was 15%; on SRPK2(h), 37%; against Yes(h), 38%; at NLK(h), 32%; on GSK3β(h) it was 5%. Further, the inhibition at 10 µM on PRK2(h) is 99%; at VRK2(h) it was -5%; at EphA2(h) it was -4%; on NEK3(h), -10%.
